These compounds were tested against T1, BTK enzyme (recombinant full-length BTK, hBTK) (Homo sapiens, UniProt Q06187) (assay: Btk enzyme activity assay (LANCE TR-FRET)). Settings: 60 minute compound & enzyme incubation, 50 pM hBTK, 25 μM ATP, read-out: BTK binding IC50.
T1 construct: recombinant protein from baculovirus-transfected Sf9 cells: full-length BTK, 6HIS-tag cleaved; 6HIS (cleaved yes); made in house; host or cells: baculovirus-transfected Sf9 cells
Format: biochemical
Description: BTK enzymatic activity was determined with the LANCE (Lanthanide Chelate Excite) TR-FRET (Time-resolved fluorescence resonance energy transfer) assay. In this assay, the potency (IC50) of each compound was determined from an eleven point (1:3 serial dilution; final compound concentration range in assay from 1 μM to 0.017 nM) titration curve using the following outlined procedure. To each well of a black non-binding surface Corning 384-well microplate (Corning Catalog #3820), 5 nL of compound (2000 fold dilution in final assay volume of 10 μL) was dispensed, followed by the addition of 7.5 μL of 1× kinase buffer (50 mM Hepes 7.5, 10 mM MgCl2, 0.01% Brij-35, 1 mM EGTA, 0.05% BSA & 1 mM DTT) containing 5.09 pg/μL (66.67 pM) of BTK enzyme (recombinant protein from baculovirus-transfected Sf9 cells: full-length BTK, 6HIS-tag cleaved). Following a 60 minute compound & enzyme incubation, each reaction was initiated by the addition of 2.5 μL 1× kinase buffer containing 8 μM biotinylated “AS” peptide (Biotin-EQEDEPEGDYFEWLE-NH2), and 100 μM ATP. The final reaction in each well of 10 μL consists of 50 pM hBTK, 2 μM biotin-AS-peptide, and 25 μM ATP. Phosphorylation reactions were allowed to proceed for 120 minutes. Reactions were immediately quenched by the addition of 20 uL of 1× quench buffer (15 mM EDTA, 25 mM Hepes 7.3, and 0.1% Triton X-100) containing detection reagents (0.626 nM of LANCE-Eu-W1024-anti-phosphoTyrosine antibody, PerkinElmer and 86.8 nM of Streptavidin-conjugated Dylight 650, Dyomics/ThermoFisher Scientific). After 60 minutes incubation with detection reagents, reaction plates were read on a PerkinElmer EnVision plate reader using standard TR-FRET protocol. Briefly, excitation of donor molecules (Eu-chelate:anti-phospho-antibody) with a laser light source at 337 nm produces energy that can be transferred to Dylight-650 acceptor molecules if this donor:acceptor pair is within close proximity. Fluorescence intensity at both 665 nm (acceptor) and 615 nm (donor) are measured and a TR-FRET ratio calculated for each well (acceptor intensity/donor intensity). IC50 values were determined by 4 parameter robust fit of TR-FRET ratio values vs. (Log10) compound concentrations.

T1 sequence (Q06187 whole entry): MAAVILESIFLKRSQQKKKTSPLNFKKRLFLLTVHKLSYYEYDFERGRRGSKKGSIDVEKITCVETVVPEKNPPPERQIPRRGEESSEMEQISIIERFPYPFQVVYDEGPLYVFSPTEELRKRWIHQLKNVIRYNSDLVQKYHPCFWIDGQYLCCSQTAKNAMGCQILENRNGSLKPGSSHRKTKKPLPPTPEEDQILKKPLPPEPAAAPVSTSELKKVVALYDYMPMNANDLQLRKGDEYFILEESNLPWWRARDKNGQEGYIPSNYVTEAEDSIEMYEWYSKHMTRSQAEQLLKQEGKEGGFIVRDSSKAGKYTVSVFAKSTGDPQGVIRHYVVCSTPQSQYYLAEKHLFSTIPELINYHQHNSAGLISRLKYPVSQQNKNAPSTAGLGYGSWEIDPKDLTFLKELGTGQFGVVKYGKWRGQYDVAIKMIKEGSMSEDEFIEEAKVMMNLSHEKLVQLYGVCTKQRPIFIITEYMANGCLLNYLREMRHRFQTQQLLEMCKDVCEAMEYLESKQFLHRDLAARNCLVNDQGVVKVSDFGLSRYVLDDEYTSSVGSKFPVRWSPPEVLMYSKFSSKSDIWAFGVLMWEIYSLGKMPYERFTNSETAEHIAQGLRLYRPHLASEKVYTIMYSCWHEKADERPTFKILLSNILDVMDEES

| Compound | IC50 [nM] |
| --- | --- |
| N#CN1CCC[C@@H](c2nc(-c3ccc(C(=O)Nc4cc(C(F)(F)F)ccn4)cc3)c3c(N)nccn23)C1 [Example 1, 4-{8-amino-3-[(3R)-1-cyanopiperidin-3-yl]imidazo[1,5-a]pyrazin-1-yl}-N-[4-(trifluoromethyl)pyridin-2-yl]benzamide] | 3.6 |
| N#CN1CCC[C@@H](c2nc(-c3ccc(C(=O)Nc4ccccn4)cc3)c3c(N)nccn23)C1 [Example 2, 4-{8-amino-3-[(3R)-1-cyanopiperidin-3-yl]imidazo[1,5-a]pyrazin-1-yl}-N-pyridin-2-ylbenzamide] | 1.5 |
| N#CN1CCC[C@H]1c1nc(-c2ccc(C(=O)Nc3ccccn3)cc2)c2c(N)nccn12 [Example 3, 4-{8-amino-3-[(2S)-1-cyanopyrrolidin-2-yl]imidazo[1,5-a]pyrazin-1-yl}-N-pyridin-2-ylbenzamide] | 60.3 |
| N#CN1CCC[C@H]1c1nc(-c2ccc(C(=O)Nc3cc(F)ccn3)cc2)c2c(N)nccn12 [Example 4, 4-{8-amino-3-[(2S)-1-cyanopyrrolidin-2-yl]imidazo[1,5-a]pyrazin-1-yl}-N-(4-fluoropyridin-2-yl)benzamide] | 49 |
| Cc1nccn2c([C@@H]3CCCN3C#N)nc(-c3ccc(C(=O)Nc4ccccn4)cc3)c12 [Example 5, 4-{3-[(2S)-1-cyanopyrrolidin-2-yl]-8-methylimidazo[1,5-a]pyrazin-1-yl}-N-pyridin-2-ylbenzamide] | 371 |
| N#CN1CCOC(c2nc(-c3ccc(C(=O)Nc4cc(C(F)(F)F)ccn4)cc3)c3c(N)nccn23)C1 (centres unmarked) [Example 6, 4-[8-amino-3-(4-cyanomorpholin-2-yl)imidazo[1,5-a]pyrazin-1-yl]-N-[4-(trifluoromethyl)pyridin-2-yl]benzamide] | 3.9 |
| N#CN1CCC[C@@H](c2nc(-c3ccc(C(=O)Nc4cc(C5CC5)ccn4)cc3)c3c(N)nccn23)C1 [Example 7, 4-{8-amino-3-[(3R)-1-cyanopiperidin-3-yl]imidazo[1,5-a]pyrazin-1-yl}-N-(4-cyclopropylpyridin-2-yl)benzamide] | 1.8 |
| Cc1nccn2c([C@@H]3CCCN(C#N)C3)nc(-c3ccc(C(=O)Nc4cc(C5CC5)ccn4)cc3)c12 [Example 8, 4-{3-[(3R)-1-cyanopiperidin-3-yl]-8-methylimidazo[1,5-a]pyrazin-1-yl}-N-(4-cyclopropylpyridin-2-yl)benzamide] | 46.8 |
| N#CN1CCC[C@H]1c1nc(-c2ccc(C(=O)Nc3cc(C4CC4)ccn3)cc2)c2c(N)nccn12 [Example 9, 4-{8-amino-3-[(2S)-1-cyanopyrrolidin-2-yl]imidazo[1,5-a]pyrazin-1-yl}-N-(4-cyclopropylpyridin-2-yl)benzamide] | 67.6 |
| C[C@H]1CC[C@@H](c2nc(-c3ccc(C(=O)Nc4ccccn4)cc3)c3c(N)nccn23)CN1C#N [Example 10, 4-{8-amino-3-[(3R,6S)-1-cyano-6-methylpiperidin-3-yl]imidazo[1,5-a]pyrazin-1-yl}-N-pyridin-2-ylbenzamide] | 3.1 |
| N#CN1CCO[C@@H](c2nc(-c3ccc(C(=O)Nc4cc(C(F)(F)F)ccn4)cc3)c3c(N)nccn23)C1 [Example 11, 4-{8-amino-3-[(2R)-4-cyanomorpholin-2-yl]imidazo[1,5-a]pyrazin-1-yl}-N-[4-(trifluoromethyl)pyridin-2-yl]benzamide] | 0.78 |
| N#CN1CCO[C@@H](c2nc(-c3ccc(C(=O)Nc4cc(C5CC5)ccn4)cc3)c3c(N)nccn23)C1 [Example 12, 4-{8-amino-3-[(2R)-4-cyanomorpholin-2-yl]imidazo[1,5-a]pyrazin-1-yl}-N-(4-cyclopropylpyridin-2-yl)benzamide] | 1 |
| N#CN1CCC[C@@H](c2nc(-c3ccc(C(=O)Nc4cc(C(F)(F)F)ccn4)cc3F)c3c(N)nccn23)C1 [Example 13, 4-{8-amino-3-[(3R)-1-cyanopiperidin-3-yl]imidazo[1,5-a]pyrazin-1-yl}-3-fluoro-N-[4-(trifluoromethyl)pyridin-2-yl]benzamide] | 0.36 |
| Cc1ccnc(NC(=O)c2ccc(-c3nc([C@@H]4CCCN(C#N)C4)n4ccnc(N)c34)cc2)c1 [Example 14, 4-{8-amino-3-[(3R)-1-cyanopiperidin-3-yl]imidazo[1,5-a]pyrazin-1-yl}-N-(4-methylpyridin-2-yl)benzamide] | 0.24 |
| COc1ccnc(NC(=O)c2ccc(-c3nc([C@@H]4CCCN(C#N)C4)n4ccnc(N)c34)cc2)c1 [Example 15, 4-{8-amino-3-[(3R)-1-cyanopiperidin-3-yl]imidazo[1,5-a]pyrazin-1-yl}-N-(4-methoxypyridin-2-yl)benzamide] | 0.41 |
| N#CN1CCC[C@@H](c2nc(-c3ccc(C(=O)Nc4cc(C(F)F)ccn4)cc3)c3c(N)nccn23)C1 [Example 16, 4-{8-amino-3-[(3R)-1-cyanopiperidin-3-yl]imidazo[1,5-a]pyrazin-1-yl}-N-[4-(difluoromethyl)pyridin-2-yl]benzamide] | 0.29 |
| N#CN1CCC[C@@H](c2nc(-c3ccc(C(=O)Nc4cc(C(F)(F)F)ccn4)cc3)c3c(N)ncc(Cl)n23)C1 [Example 17, 4-{8-amino-5-chloro-3-[(3R)-1-cyanopiperidin-3-yl]imidazo[1,5-a]pyrazin-1-yl}-N-[4-(trifluoromethyl)pyridin-2-yl]benzamide] | 0.19 |
| COCc1cnc(N)c2c(-c3ccc(C(=O)Nc4cc(C(F)(F)F)ccn4)cc3F)nc([C@@H]3CCCN(C#N)C3)n12 [Example 18, 4-{8-amino-3-[(3R)-1-cyanopiperidin-3-yl]-5-(methoxymethyl)imidazo[1,5-a]pyrazin-1-yl}-3-fluoro-N-[4-(trifluoromethyl)pyridin-2-yl]benzamide] | 0.92 |
| CCOc1cc(C(=O)Nc2cc(C(F)(F)F)ccn2)ccc1-c1nc([C@@H]2CCCN(C#N)C2)n2ccnc(N)c12 [Example 19, 4-{8-amino-3-[(3R)-1-cyanopiperidin-3-yl]imidazo[1,5-a]pyrazin-1-yl}-3-ethoxy-N-[4-(trifluoromethyl)pyridin-2-yl]benzamide] | 0.68 |
| C[C@H]1CO[C@@H](c2nc(-c3ccc(C(=O)Nc4cc(C(F)(F)F)ccn4)cc3F)c3c(N)ncc(Cl)n23)CN1C#N [Example 20, 4-{8-amino-5-chloro-3-[(2R,5S)-4-cyano-5-methylmorpholin-2-yl]imidazo[1,5-a]pyrazin-1-yl}-3-fluoro-N-[4-(trifluoromethyl)pyridin-2-yl]benzamide] | 0.48 |
| CCOc1cc(C(=O)Nc2cc(C(F)(F)F)ccn2)ccc1-c1nc([C@H]2CN(C#N)[C@@H](C)CO2)n2c(Cl)cnc(N)c12 [Example 21, 4-{8-amino-5-chloro-3-[(2R,5S)-4-cyano-5-methylmorpholin-2-yl]imidazo[1,5-a]pyrazin-1-yl}-3-ethoxy-N-[4-(trifluoromethyl)pyridin-2-yl]benzamide] | 1.5 |
| COc1cc(C(=O)Nc2cc(C(F)(F)F)ccn2)ccc1-c1nc([C@H]2CN(C#N)CCO2)n2ccnc(N)c12 [Example 22, 4-{8-amino-3-[(2R)-4-cyanomorpholin-2-yl]imidazo[1,5-a]pyrazin-1-yl}-3-methoxy-N-[4-(trifluoromethyl)pyridin-2-yl]benzamide] | 0.6 |
| CCOc1cc(C(=O)Nc2cc(C(F)(F)F)ccn2)ccc1-c1nc([C@@H]2CC[C@H](C)N(C#N)C2)n2c(Cl)cnc(N)c12 [Example 23, 4-{8-amino-5-chloro-3-[(3R,6S)-1-cyano-6-methylpiperidin-3-yl]imidazo[1,5-a]pyrazin-1-yl}-3-ethoxy-N-[4-(trifluoromethyl)pyridin-2-yl]benzamide] | 2.2 |
